Measurements as given in the supplement of paper PMC10307832.

Tests used:
Assay in all cases: relative viability (nuclei count vs DMSO), 5 days (fraction); higher = more cells survive
[1] = compound: CC[C@H](CO)Nc1nc(NCc2ccccc2)c2ncn(C(C)C)c2n1 [Seliciclib] + CS(=O)(=O)N1CCN(Cc2cc3nc(-c4cccc5[nH]ncc45)nc(N4CCOCC4)c3s2)CC1 [Pictilisib] (partner 1 µM)
Method in brief: (§1)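 Cells from lung cancer lines were seeded into 1536-well plates and, one day later, dosed by pin tool. Treatments were either a single drug or a fixed dose of an anchor drug with five library-drug doses (not always all listed) in √10 steps. After 5 days, nuclei were stained in a one-step fixation (final 0.05% Triton X-100, 1% formaldehyde, 1 ug/ml Hoechst) and counted on 4× images, and relative viability is the treated-to-vehicle nuclei ratio, as the median of duplicate plates.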

[2] = compound: CC[C@H](CO)Nc1nc(NCc2ccccc2)c2ncn(C(C)C)c2n1 [Seliciclib] + N=C(N)NC(=N)NCCc1ccccc1 [Phenformin] (partner 250 µM)
Method in brief: as §1

[3] = compound: CC[C@H](CO)Nc1nc(NCc2ccccc2)c2ncn(C(C)C)c2n1 [Seliciclib] + Cc1nc(NC(=O)N2CCC[C@H]2C(N)=O)sc1-c1ccnc(C(C)(C)C(F)(F)F)c1 [Alpelisib] (partner 2 µM)
Method in brief: as §1

[4] = compound: CC[C@H](CO)Nc1nc(NCc2ccccc2)c2ncn(C(C)C)c2n1 [Seliciclib] + NC(=O)Nc1cc(-c2cccc(F)c2)sc1C(=O)N[C@H]1CCCNC1 [AZD7762] (partner 0.2 µM)
Method in brief: as §1

Cell Line	relative viability ([1]; first compound 0.08 µM)	relative viability ([1]; first compound 0.253 µM)	relative viability ([1]; first compound 0.8 µM)	relative viability ([1]; first compound 2.53 µM)	relative viability ([1]; first compound 8 µM)	relative viability ([2]; first compound 0.08 µM)	relative viability ([2]; first compound 0.253 µM)	relative viability ([2]; first compound 0.8 µM)	relative viability ([2]; first compound 2.53 µM)	relative viability ([2]; first compound 8 µM)	relative viability ([3]; first compound 0.08 µM)	relative viability ([3]; first compound 0.253 µM)	relative viability ([3]; first compound 0.8 µM)	relative viability ([3]; first compound 2.53 µM)	relative viability ([3]; first compound 8 µM)	relative viability ([4]; first compound 0.08 µM)	relative viability ([4]; first compound 0.253 µM)	relative viability ([4]; first compound 0.8 µM)	relative viability ([4]; first compound 2.53 µM)	relative viability ([4]; first compound 8 µM)
NCI-H2228	0.372	0.333	0.234	0.457	0.339	0.322	0.209	0.287	0.275	0.257	0.639	0.69	0.936	0.658	0.63					
SK-LU-1	0.615	0.641	0.762	0.556	0.526	0.532	0.582	0.647	0.435	0.413	1	1.05	1.04	0.795	0.636					
SK-MES-1	0.317	0.349	0.353	0.335	0.31	0.686	0.755	0.619	0.672	0.635	0.811	0.85	0.846	0.873	0.948					
SW 900						0.62	0.6	0.404	0.643	0.418						0.537	0.616	0.704	0.647	0.559
SW 1573	0.494	0.516	0.428	0.516	0.474	0.373	0.24	0.346	0.384	0.311	0.653	0.805	0.786	0.712	0.567					
UMC-11	0.919	0.891	0.854	0.8	0.7	0.341	0.343	0.322	0.272	0.232	0.856	0.896	0.995	1.24	0.823					
